Experimental data published in patent publication US9976141B2, “Compositions and methods for inhibiting gene expression of Hif2alpha” (Arrowhead Madison Inc., priority 2015, dated 2018).

test system: human (tumor) Hif2α (EPAS1) mRNA; assay: Hif2α knockdown in orthotopic RCC tumor bearing mice, single injection of RNAi trigger-delivery polymer conjugate, RT-qPCR (Table 7); type: in vivo; details: RNAi trigger 80 μg, polymer 126 400 μg; single tail vein injection; relative to isotonic glucose
Method: A pCR3.1 expression vector expressing the reporter gene secreted alkaline phosphatase (SEAP) under the CMV promoter was prepared by directional cloning of the SEAP coding sequence PCR amplified from Clontech's pSEAP2-basic vector. Convenient restriction sites were added onto primers used to amplify the SEAP coding sequence for cloning into the pCR3.1 vector (Invitrogen). The resultant construct pCR3-SEAP was used to create a SEAP-expressing A498 ccRCC cell line. Briefly, pCR3-SEAP plasmid was transfected into A498 ccRCC cells by electroporation following manufacturer's recommendation. Stable transfectants were selected by G418 resistance. Selected A498-SEAP clones were evaluated for SEAP expression and integration stability.
Female athymic nude mice were anesthetized with ˜3% isoflourane and placed in the right lateral decubitus position. A small, 0.5-1 cm, longitudinally abdominal incision in the left flank was made. Using a moist cotton swab, the left kidney was lifted out of the peritoneum and gently stabilized. Just before injection, a 1.0 ml syringe was filled with the cell/Matrigel mixture and a 27 gauge needle catheter was attached to the syringe tip. The filled syringe was then attached to a syringe pump (Harvard Apparatus, model PHD2000) and primed to remove air. The tip of a 27-gauge needle catheter attached to a syringe was inserted just below the renal capsule near the caudal pole and the tip of the needle was then carefully advanced cranially along the capsule 3-4 mm. A 10 μl aliquot of 2:1 (vol:vol) cell/matrigel mixture containing about 300,000 cells was slowly injected into the kidney parenchyma using a syringe pump. The needle was left in the kidney for 15-20 seconds to ensure the injection was complete. The needle was then removed from the kidney and a cotton swab was placed over the injection site for 30 seconds to prevent leakage of the cells or bleeding. The kidney was then gently placed back into the abdomen and the abdominal wall was closed. Serum was collected every 7-14 days after implantation to monitor tumor growth using a commercial SEAP assay kit. For most studies, tumor mice were used 5-6 weeks after implantation, when tumor measurements were typically around 4-8 mm.
RGD targeted HiF2α-RNAi trigger delivery conjugates. Delivery polymers were modified using RGD-PEG-HyNic, RGD-PEG-ACit-PNP, or RDG-PEG-FCitFP-TFP and PEG-dipeptide modifying agents. The indicated amount of polymer 126 or 100A polymer was modified with 8×PEG12-ACit-PABC-PNP/0.5× aldehyde-PEG24-FCit-PABC-PNP (with RGD mimic #1-PEG-HyNic using protocol #1) and the indicated amount of the indicated Hif2α RNAi trigger. Polymer 064 was modified according to protocol 7. Kidney RCC tumor-bearing mice were generated as described and treated with a single tail vein injection of isotonic glucose (G1) or the indicated Hif2α RNAi trigger-delivery polymer conjugate. Mice were euthanized at the indicated time after injection and total RNA was prepared from kidney tumor using Trizol reagent following manufacturer's recommendation. Relative HiF2α mRNA levels were determined by RT-qPCR as described below and compared to mice treated with delivery buffer (isotonic glucose) only.
In preparation for quantitative PCR, total RNA was isolated from tissue samples homogenized in TriReagent (Molecular Research Center, Cincinnati, Ohio) following the manufacturer's protocol. Approximately 500 ng RNA was reverse-transcribed using the High Capacity cDNA Reverse Transcription Kit (Life Technologies). For human (tumor) Hif2α (EPAS1) expression, pre-manufactured TaqMan gene expression assays for human Hif2α (Catalog #4331182) and CycA (PPIA) Catalog #: 4326316E) were used in biplex reactions in triplicate using TaqMan Gene Expression Master Mix (Life Technologies) or VeriQuest Probe Master Mix (Affymetrix). […]

First: AD01033 (antisense TAAGUUAAGCUCCCAUACATT; sense UGUAUGGGAGCUUAACUUAT; Hif2alpha RNAi agent antisense strand; modified_base 2,4,6,8,10,12,14,16,18 /mod_base = “2′-deoxy-2′-fluoro corresponding nucleoside”; modified_base 3,5,9,11,13,15,17,19 /mod_base = “2′-O-methyl corresponding nucleoside”; modified_base 7 /mod_base = “2′-3′ seco corresponding nucleotide”; modified_base 21 /mod_base = “5′-phosphorothioate corresponding nucleotide”; Hif2alpha RNAi agent sense strand; modified_base 1,3,5,7,9,11,13,15,17,19 /mod_base = “2′-deoxy-2′-fluoro corresponding nucleoside”; modified_base 2,4,6,8,10,12,14,16,18 /mod_base = “2′-O-methyl corresponding nucleoside”; modified_b)
Second: AD01034 (antisense TAAGUUAAGCUCCCAUACATT; sense UGUAUGGGAGCUUAACUUAT; Hif2alpha RNAi agent antisense strand; modified_base 2,4,6,8,10,12,14,16,18 /mod_base = “2′-deoxy-2′-fluoro corresponding nucleoside”; modified_base 3,5,7,9,11,13,15,17,19 /mod_base = “2′-O-methyl corresponding nucleoside”; modified_base 21 /mod_base = “5′-phosphorothioate corresponding nucleotide”; Hif2alpha RNAi agent sense strand; modified_base 1,3,5,7,9,11,13,15,17,19 /mod_base = “2′-deoxy-2′-fluoro corresponding nucleoside”; modified_base 2,4,6,8,10,12,14,16,18 /mod_base = “2′-O-methyl corresponding nucleoside”; modified_base 20 /mod_base = “3′-3′-linked nucleotide”; modified_base 1 /mo)
The “Relative Expression day 4 (Hif2α mRNA in kidney tumor)” value of the first is higher: 1.08 for the first, 0.35 for the second.

For “AD01255 (antisense TUUCAUGAAAUCGUUACGUTT; sense UAUACGUAACGAUUUCAUGAAAT; Hif2alpha RNAi agent antisense strand; modified_base 2,4,6,8,10,12,14,16,18 /mod_base = “2′-deoxy-2′-fluoro corresponding nucleoside”; modified_base 3,5,7,9,11,13,15,17,19 /mod_base = “2′-O-methyl corresponding nucleoside”; modified_base 21 /mod_base = “5′-phosphorothioate corresponding nucleotide”; Hif2alpha RNAi agent sense strand; modified_base 2 modified base = “2′-hydroxy corresponding nucleoside”; modified_base 4,6,8,10,12,14,16,18,20,22 /mod_base = “2′-deoxy-2′-fluoro corresponding nucleoside”; modified_base 1,3,5,7,9,11,13,15,17,19,21 /mod_base = “2′-O-methyl correspondin g nucleosid)”, the “Relative Expression day 4 (Hif2α mRNA in kidney tumor)” value was 0.28.
